Data as given in patent US9763980B2, “Combined chemical modification of sphingosine-1-phosphate (S1P) and CXCR4 signalling pathways for hematopoietic stem cell (HSC) mobilization and engraftment” (Children's Medical Center Corporation, priority 2011, dated 2017).

What was measured:
asthma = conditions: mouse model for asthma; cited from earlier work
[1] = test system: brain inflammatory reaction following traumatic brain injury (TBI); conditions: rat model for brain inflammatory reaction following traumatic brain injury (TBI); cited from earlier work
[2] = test system: airway inflammation and induction of bronchial hyperresponsiveness; conditions: mouse model for airway inflammation and induction of bronchial hyperresponsiveness; cited from earlier work
rheumatoid arthritis = conditions: rat models for rheumatoid arthritis; cited from earlier work
autoimmune uveitis = conditions: rat model for autoimmune uveitis; cited from earlier work
[3] = test system: graft coronary artery disease and graft-versus-host disease (GVHD); conditions: mouse models for graft coronary artery disease and graft-versus-host disease (GVHD); cited from earlier work
atherosclerosis = conditions: mouse models for atherosclerosis; cited from earlier work
acute viral myocarditis = conditions: mouse model for acute viral myocarditis; cited from earlier work
multiple sclerosis = conditions: cited from earlier work
[4] = test system: experimental autoimmune encephalomyelitis (EAE); conditions: EAE in rats, a model for human multiple sclerosis; cited from earlier work
atopic dermatitis = conditions: mouse model for atopic dermatitis; cited from earlier work
peripheral lymphocyte = conditions: in vivo; cited from earlier work
[5] = test system: progressive mesangioproliferative glomerulonephritis; conditions: rat model for progressive mesangioproliferative glomerulonephritis; cited from earlier work
[6] = test system: ischemia-reperfusion injury; conditions: mouse model for ischemia-reperfusion injury; cited from earlier work
[7] = test system: CHT hematopoiesis (HSPC markers cmyb and runx1 in the CHT); test: Zebrafish embryo chemical treatment and dose matrices, whole mount in situ hybridization of cmyb/runx1 in the CHT; type: in vivo
Protocol: Transgenic zebrafish embryos were intercrossed and selected using epifluorescence (e.g. Runx1+23:EGFP, cmyb:EGFP^4, cd41:EGFP^2, kdrl:DsRed2^31). Live imaging was performed using a spinning disk confocal microscope with an incubated chamber. Zebrafish embryos were mounted and imaged as previously described. Live mouse fetal liver explants were prepared as previously described for aorta-gonad-mesonephros tissue^10. Image processing was done primarily with Fluorender^32 and ImageJ, which included the MTrackJ plugin^33 for manual cell tracking. For chemical screening and dose matrices, stage-matched AB embryos were dechorionated and arrayed 8-10/well in 96-well mesh-bottomed plates (Millipore). Embryos were treated from 48-72 hpf by placement directly in 96-well receiver plates containing small molecules diluted in E3 media+1% DMSO. Embryos were checked for circulation before fixation. Whole mount in situ hybridization was performed as previously described^34, with the addition of 0.2% glutaraldehyde to 4% formaldehyde at the post-fixation step. […] Lineage tracing was performed by injecting cd41:EGFP positive embryos with caged fluorescein conjugated to dextran (MW 10000). Embryos were uncaged in the DA at 28 hpf with a UV laser. Embryos were raised to 46 hpf in E3 media or E3+S1PR1 antagonist W146 (10 μM), then fixed for antibody staining to detect double positive cd41:EGFP and uncaged FITC HSPCs. Receptor fusion cDNAs (25 pg) were injected into one-cell embryos with Tol2 RNA (15 pg). Flow cytometry was performed using a LSR II and cells were sorted using a FACSAria (BD Biosciences). Flow cytometry data was analyzed using FACSDiva and FlowJo software.
Having followed newly born aortic HSPCs to the intermediate tissue, the inventors assessed the signaling pathways involved in embryonic migration. The inventors designed a chemical genetic screen to introduce small molecules to the zebrafish embryo from the peak window of HSPC migration to the CHT (48-72 hpf).

[8] = test system: systemic lupus erythematosus (SLE); conditions: mouse model for systemic lupus erythematosus (SLE); cited from earlier work
autoimmune myocarditis = conditions: rat model for autoimmune myocarditis; cited from earlier work
[9] = clinical trials; due to agonism of the S1P3 receptor; cited from earlier work
HSC = conditions: Massberg et al.; cited from earlier work
[10] = test system: inflammatory bowel disease including colitis; conditions: mouse models for inflammatory bowel disease including colitis; cited from earlier work
[11] = Phase II clinical trials, relapsing-remitting multiple sclerosis

SMILES: CCCCCCCCc1ccc(CCC(N)(CO)CO)cc1 [FTY720, 2-amino-2-[2-(4-octylphenyl)ethyl]propane-1,3-diol]
- therapeutic efficacy (asthma): therapeutic efficacy
- therapeutic efficacy [1]: therapeutic efficacy
- therapeutic efficacy [2]: therapeutic efficacy
- therapeutic efficacy (rheumatoid arthritis): therapeutic efficacy
- therapeutic efficacy (autoimmune uveitis): therapeutic efficacy
- therapeutic efficacy [3]: therapeutic efficacy
- therapeutic efficacy (atherosclerosis): therapeutic efficacy
- therapeutic efficacy (acute viral myocarditis): therapeutic efficacy
- clinical disease activity (multiple sclerosis; [11]): reduce
- number of lesions detected by magnetic resonance imaging (MRI) (multiple sclerosis; [11]): reduce
- therapeutic efficacy (multiple sclerosis; multiple sclerosis, clinical trials): therapeutic efficacy
- therapeutic efficacy [4]: therapeutic efficacy
- therapeutic efficacy (atopic dermatitis): therapeutic efficacy
- lymphopenia (peripheral lymphocyte lowering) (peripheral lymphocyte): rapidly and reversibly induce lymphopenia
- therapeutic efficacy [5]: therapeutic efficacy
- therapeutic efficacy [6]: therapeutic efficacy
- CHT score (greatest engraftment in dose matrix) ([7]; 15 μM AMD3100 and 5 μM FTY720): +2
- HSC engraftment ([7]; 3:1 ratio of FTY720:AMD3100): promote and enhance HSC engraftment
- migration of HSC from the bone marrow ([7]; 5:1 ratio of FTY720:AMD3100): promote migration of HSC
- cmyb/runx1 expression in the CHT ([7]; FTY720 5 μM alone, treatment from 48 hpf, 72 hpf embryos): little effect
- CHT hematopoiesis ([7]; FTY720 (5μM) combined with AMD3100 (15μM)): increase
- CHT hematopoiesis ([7]; FTY720 with increased AMD3100 dose): greatly reduced
- CHT hematopoiesis ([7]; combination of FTY720 and AMD3100 at specific combined doses (interaction matrix)): increased
- Experimental data: concentration of S1PR1 modulating agent in the combination effective at increasing HSC engraftment ([7]; combination with AMD3100): 5 µM
- Experimental data: concentration of S1PR1 modulating agent in the combination effective at increasing HSC mobilization ([7]; combination with AMD3100): 5 μM FTY720
- mobilization of HSC from the bone marrow in vivo ([7]; combination with AMD3100 in specific ratios): improves mobilization
- CHT hematopoiesis ([7]; dose matrices, agent combined with AMD3100): synergistic increases
- CHT hematopoiesis ([7]; each agent alone at the doses of the effective FTY720/AMD3100 combination): no effect
- therapeutic efficacy [8]: therapeutic efficacy
- therapeutic efficacy (autoimmune myocarditis): therapeutic efficacy
- adverse event [9]: transient asymptomatic bradycardia
- HSC egress from tissues (HSC): blocked
- therapeutic efficacy [10]: therapeutic efficacy
